This is an account of results in US12649722B2, “Herbicidal cinnoline derivatives” (SYNGENTA CROP PROTECTION AG, priority 2020, dated 2026).

Holding throughout (type): in vivo
The test system of assay [1] is Solarium nigrum (SOLNI). In words: Pre-emergence Test, SOLNI. As to conditions: 1000 g/ha, evaluated after 13 days.
Assay [2] deals with Echinochloa crus-galli (ECHCG). Briefly: Post-emergence Test, ECHCG. As to conditions: sprayed after 8 days cultivation, 1000 g/ha, evaluated after 13 days. The procedure, abridged: (§1)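 Pots sown with AMARE, SOLNI, SETFA, LOLPE, ECHCG, IPOHE, kept in glasshouse (24/16 °C, 14 h light, 65% humidity), sprayed at 1000 g/ha unless stated, in acetone/water 50:50 with 0.5% Tween 20. Damage scored after 13 days on a 0–5 scale (5=81–100%, 0=0%).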

In assay [3] the test system is Setaria faberi (SETFA). Briefly: Pre-emergence Test, SETFA. As to conditions: 1000 g/ha, evaluated after 13 days.
Assay [4] relates to Lolium perenne (LOLPE). Briefly: Pre-emergence Test, LOLPE. As to conditions: 1000 g/ha, evaluated after 13 days.
The subject of assay [5] is Amaranthus retoflexus (AMARE). In words: Post-emergence Test, AMARE. As to conditions: sprayed after 8 days cultivation, 1000 g/ha, evaluated after 13 days. The procedure, abridged:
as §1

Assay [6] has as its system Ipornoea hederacea (IPOHE). Briefly: Pre-emergence Test, IPOHE. As to conditions: 1000 g/ha, evaluated after 13 days.
Assay [7] deals with Ipornoea hederacea (IPOHE). Briefly: Post-emergence Test, IPOHE. As to conditions: sprayed after 8 days cultivation, 1000 g/ha, evaluated after 13 days. The procedure, abridged: as §1
In assay [8] the test system is Setaria faberi (SETFA). In words: Post-emergence Test, SETFA. As to conditions: sprayed after 8 days cultivation, 1000 g/ha, evaluated after 13 days. The procedure, abridged:
as §1

Assay [9] concerns Solarium nigrum (SOLNI). Briefly: Post-emergence Test, SOLNI. As to conditions: sprayed after 8 days cultivation, 1000 g/ha, evaluated after 13 days. As for the experimental part: (§2) Seeds of a variety of test species are sown in standard soil in pots (Amaranthus retoflexus (AMARE), Solarium nigrum (SOLNI), Setaria faberi (SETFA), Lolium perenne (LOLPE), Echinochloa crus-galli (ECHCG), Ipornoea hederacea (IPOHE)). After 8 days cultivation under controlled conditions in a glasshouse (at 24° C./16° C., day/night; 14 hours light; 65% humidity), the plants are sprayed with an aqueous spray solution derived from the formulation of the technical active ingredient in acetone/water (50:50) solution containing 0.5% Tween 20 (polyoxyethylene sorbitan monolaurate, CAS RN 9005-64-5). Compounds are applied at 1000 g/ha unless otherwise stated. The test plants are then grown in a glasshouse under controlled conditions in a glasshouse (at 24° C./16° C., day/night; 14 hours light; 65% humidity) and watered twice daily. After 13 days the test is evaluated for the percentage damage caused to the plant. The biological activities are shown in the following table on a five-point scale (5=81-100%; 4=61-80%; 3=41-60%; 2=21-40%; 1=10-20%; 0=0%; −=not tested).

Assay [10] deals with Lolium perenne (LOLPE). In words: Post-emergence Test, LOLPE. As to conditions: sprayed after 8 days cultivation, 1000 g/ha, evaluated after 13 days. Here is the method:
as §2

The test system of assay [11] is Echinochloa crus-galli (ECHCG). In words: Pre-emergence Test, ECHCG. As to conditions: 1000 g/ha, evaluated after 13 days.
In assay [12] the test system is Amaranthus retoflexus (AMARE). In words: Pre-emergence Test, AMARE. As to conditions: 1000 g/ha, evaluated after 13 days.

For `O=C(O)c1nn(-c2ccc(OC(F)(F)F)cc2)c2cccc(-c3ncco3)c2c1=O` [Compound P5, 5-oxazol-2-yl-4-oxo-1-[4-(trifluoromethoxy)phenyl] cinnoline-3-carboxylic acid], the “percentage damage caused to the plant, SOLNI” value with Solarium nigrum (SOLNI) [1] is recorded as 0 (0=0%); in the assay on Solarium nigrum (SOLNI) [9], 2 (2=21-40%). The results for the “percentage damage caused to the plant, ECHCG” value in assay [2] and in assay [11] were 3 (3=41-60%) and 0 (0=0%), respectively. For the same compound, the entries for the “percentage damage caused to the plant, SETFA” value with Setaria faberi (SETFA) [3] and in the assay on Setaria faberi (SETFA) [8] were 1 (1=10-20%) and 4 (4=61-80%), respectively. Also, the “percentage damage caused to the plant, LOLPE” value was 0 (0=0%) in the assay on Lolium perenne (LOLPE) [4] and 2 (2=21-40%) in the assay on Lolium perenne (LOLPE) [10]. In addition, the figures for the “percentage damage caused to the plant, AMARE” value in [5] and in assay [12] were 1 (1=10-20%) and 0 (0=0%), respectively. Further, the “percentage damage caused to the plant, IPOHE” value in assay [6] and in [7] was 0 (0=0%) throughout.
Consider `COC(=O)c1nn(-c2ccc(OC(F)(F)F)cc2)c2cccc(-c3ccc(F)cc3)c2c1=O` [Compound P6, methyl 5-(4-fluorophenyl)-4-oxo-1-[4-(trifluoromethoxy)phenyl] cinnoline-3-carboxylate], for which the “percentage damage caused to the plant, SOLNI” value with Solarium nigrum (SOLNI) [1] and with Solarium nigrum (SOLNI) [9] was 0 (0=0%) each time. Moreover, the “percentage damage caused to the plant, ECHCG” value in assay [2] and in assay [11] was 0 (0=0%) each time. Moreover, the “percentage damage caused to the plant, SETFA” value in the assay on Setaria faberi (SETFA) [3] and with Setaria faberi (SETFA) [8] was 0 (0=0%) in each case. In addition, the “percentage damage caused to the plant, LOLPE” value with Lolium perenne (LOLPE) [4] and in the assay on Lolium perenne (LOLPE) [10] was 0 (0=0%) throughout. Also, the “percentage damage caused to the plant, AMARE” value in [5] and in [12] was 0 (0=0%) in each case. The “percentage damage caused to the plant, IPOHE” value in [6] and in assay [7] was 0 (0=0%) each time.
Regarding `COC(=O)c1nn(-c2ccc(OC(F)(F)F)cc2)c2cccc(C#N)c2c1=O` [Compound P7, methyl 5-cyano-4-oxo-1-[4-(trifluoromethoxy)phenyl] cinnoline-3-carboxylate], the “percentage damage caused to the plant, SOLNI” value was 0 (0=0%) in the assay with Solarium nigrum (SOLNI) [1] and 2 (2=21-40%) in the assay on Solarium nigrum (SOLNI) [9]. The “percentage damage caused to the plant, ECHCG” value in assay [2] was 1 (1=10-20%); in assay [11] it was 2 (2=21-40%). The “percentage damage caused to the plant, SETFA” value in the assay on Setaria faberi (SETFA) [3] and with Setaria faberi (SETFA) [8] was 1 (1=10-20%) each time. In addition, the “percentage damage caused to the plant, LOLPE” value in the assay on Lolium perenne (LOLPE) [4] and in the assay on Lolium perenne (LOLPE) [10] was 0 (0=0%) throughout. Moreover, the “percentage damage caused to the plant, AMARE” value is 1 (1=10-20%) in [5] and 0 (0=0%) in assay [12]. Moreover, the “percentage damage caused to the plant, IPOHE” value in assay [6] and in assay [7] was 0 (0=0%) in each case.
As for `CC(=O)c1cccc2c1c(=O)c(C(=O)O)nn2-c1ccc(OC(F)(F)F)cc1` [Compound P10, 5-acetyl-4-oxo-1-[4-(trifluoromethoxy)phenyl] cinnoline-3-carboxylic acid], the results for the “percentage damage caused to the plant, SOLNI” value with Solarium nigrum (SOLNI) [1] and in the assay with Solarium nigrum (SOLNI) [9] were 1 (1=10-20%) and 4 (4=61-80%), respectively. Further, the “percentage damage caused to the plant, ECHCG” value in assay [2] was 4 (4=61-80%); in assay [11], 5 (5=81-100%). Further, the “percentage damage caused to the plant, SETFA” value is 5 (5=81-100%) with Setaria faberi (SETFA) [3] and 4 (4=61-80%) in the assay with Setaria faberi (SETFA) [8]. Further, the “percentage damage caused to the plant, LOLPE” value in the assay with Lolium perenne (LOLPE) [4] and in the assay on Lolium perenne (LOLPE) [10] was 4 (4=61-80%) throughout. Further, the “percentage damage caused to the plant, AMARE” value in assay [5] and in assay [12] was 1 (1=10-20%) throughout. Besides, the “percentage damage caused to the plant, IPOHE” value in assay [6] is on record as 0 (0=0%); in [7], 4 (4=61-80%).
